Test results taken from BindingDB's records for doi:10.1016/j.bmcl.2011.06.080 (Johnson & Johnson Pharmaceutical Research and Development, 2011).

Test: Antagonist activity at CCR2 in human THP1 cells assessed as inhibition of MCP1-induced chemotaxis after 3 hrs

SMILES	IC50 [nM]
COc1cc([C@H]2CC[C@H](N3CC(NC(=O)CNC(=O)c4cccc(C(F)(F)F)c4)C3)CC2)ccn1	170
COc1ccc([C@]2(O)CC[C@@H](N3CC(NC(=O)CNC(=O)c4cccc(C(F)(F)F)c4)C3)CC2)cc1	67
O=C(CNC(=O)c1cccc(C(F)(F)F)c1)NC1CN([C@H]2CC[C@H](c3cccnc3)CC2)C1	52
N[C@]1(c2ccccc2)CC[C@H](N2CC(NC(=O)CNC(=O)c3cccc(C(F)(F)F)c3)C2)CC1	160
O=C(CNC(=O)c1cccc(C(F)(F)F)c1)NC1CN([C@H]2CC[C@H](c3ccncc3O)CC2)C1	57
O=C(CNC(=O)c1cccc(C(F)(F)F)c1)NC1CN([C@H]2CC[C@](O)(c3ccc4c(c3)OCC4)CC2)C1	52
O=C(CNC(=O)c1cccc(C(F)(F)F)c1)NC1CN([C@H]2CC[C@H](c3ccc(O)cc3)CC2)C1	42
O=C(CNC(=O)c1cccc(C(F)(F)F)c1)NC1CN([C@H]2CC[C@H](c3ccc(C(=O)O)cc3)CC2)C1	1300
O=C(CNC(=O)c1cccc(C(F)(F)F)c1)NC1CN([C@H]2CC[C@H](c3ccc(N4CCCC4)cc3)CC2)C1	240

These reach a lower IC50. Values come first.

IC50 [nM]	SMILES
15	O=C(CNC(=O)c1cccc(C(F)(F)F)c1)NC1CN([C@H]2CC[C@@H](c3ccc4c(c3)OCO4)CC2)C1
11	COc1ccc([C@H]2CC[C@H](N3CC(NC(=O)CNC(=O)c4cccc(C(F)(F)F)c4)C3)CC2)cn1
27	O=C(CNC(=O)c1cccc(C(F)(F)F)c1)NC1CN([C@H]2CC[C@](O)(c3ccc4c(c3)OCO4)CC2)C1
25	COc1ccc([C@H]2CC[C@H](N3CC(NC(=O)CNC(=O)c4cccc(C(F)(F)F)c4)C3)CC2)cc1
28	COc1cnccc1[C@H]1CC[C@H](N2CC(NC(=O)CNC(=O)c3cccc(C(F)(F)F)c3)C2)CC1
14	O=C(CNC(=O)c1cccc(C(F)(F)F)c1)NC1CN([C@H]2CC[C@H](c3ccc(O)cn3)CC2)C1
21	O=C(CNC(=O)c1cccc(C(F)(F)F)c1)NC1CN([C@H]2CC[C@H](c3ccc4nc[nH]c4c3)CC2)C1
